Laboratory results: US20260174734A1, “PHARMACEUTICAL COMPOSITION” (MEXICHEM FLUOR S.A. DE C.V., priority 2016, published 2026)

Key:
[1] = In vitro aerosolization performance from MDI (Next Generation Impactor); assay type: physicochemical
[2] = Chemical stability in propellant in uncoated aluminium cans (HPLC assay and total impurities); settings: for % Assay (LC) / % total impurities: uncoated aluminium cans
[3] = HFA-134a propellant, T = 0, combination formulation, MDI
[4] = HFA-134a propellant, T = 1 month @ 40° C./75% RH, valve down
[5] = HFA-152a propellant, T = 0, combination formulation, MDI
[6] = HFA-152a propellant, T = 1 month @ 40° C./75% RH, valve down
[7] = HFA-134a, T = 1M @ 25° C./60% RH
[8] = HFA-134a, T = 1M @ 40° C./75% RH
[9] = HFA-134a, T = 3M @ 25° C./60% RH
[10] = HFA-134a, T = 3M @ 40° C./75% RH
[11] = HFA-152a, T = 1M @ 25° C./60% RH
[12] = HFA-152a, T = 1M @ 40° C./75% RH
[13] = HFA-152a, T = 3M @ 25° C./60% RH
[14] = HFA-152a, T = 3M @ 40° C./75% RH

| Emitted Dose (μg ± S.D.) [1, 3] [µg] | Fine Particle Dose (μg ± S.D.) [1, 3] [µg] | MMAD ± GSD (μm) [1, 3] [μm] | Emitted Dose (μg ± S.D.) [1, 4] [µg] | Fine Particle Dose (μg ± S.D.) [1, 4] [µg] | MMAD ± GSD (μm) [1, 4] [μm] | Emitted Dose (μg ± S.D.) [1, 5] [µg] | Fine Particle Dose (μg ± S.D.) [1, 5] [µg] | MMAD ± GSD (μm) [1, 5] [μm] | Emitted Dose (μg ± S.D.) [1, 6] [µg] | Fine Particle Dose (μg ± S.D.) [1, 6] [µg] | MMAD ± GSD (μm) [1, 6] [μm] | % Assay (LC) ([2]; HFA-134a, Initial time T = 0) [%] | % total impurities ([2]; HFA-134a, Initial time T = 0) | % Assay (LC) [2, 7] [%] | % total impurities [2, 7] [%] | % Assay (LC) [2, 8] [%] | % total impurities [2, 8] [%] | % Assay (LC) [2, 9] [%] | % total impurities [2, 9] [%] | Structure (SMILES) | further results |
| --- | --- | --- | --- | --- | --- | --- | --- | --- | --- | --- | --- | --- | --- | --- | --- | --- | --- | --- | --- | --- | --- |
| 119.0 ± 2.0 | 38.8 ± 1.7 | 3.0 ± 1.8 | 112.8 ± 2.3 | 32.8 ± 1.9 | 3.1 ± 1.9 | 111.8 ± 0.7 | 51.5 ± 1.9 | 3.0 ± 1.9 | 105.6 ± 0.8 | 48.5 ± 1.5 | 2.9 ± 1.9 | 98.5 | <LoQ | 98.2 | 0.19 | 97.8 | 0.38 | 94.8 | 0.58 | CCC(=O)O[C@]1(C(=O)SCF)[C@H](C)C[C@H]2[C@@H]3C[C@H](F)C4=CC(=O)C=C[C@]4(C)[C@@]3(F)[C@@H](O)C[C@@]21C [Fluticasone Propionate, fluticasone propionate] | FPFED (%) fine particle fraction of the emitted dose [1, 3]: 32.6 ± 0.9%; FPFED (%) fine particle fraction of the emitted dose [1, 4]: 29.0 ± 1.9%; FPFED (%) fine particle fraction of the emitted dose [1, 5]: 46.1 ± 1.5%; FPFED (%) fine particle fraction of the emitted dose [1, 6]: 45.2 ± 1.2%; % Assay (LC) [2, 10]: 93.8%; % total impurities [2, 10]: 0.69%; % Assay (LC) ([2]; HFA-152a, Initial time T = 0): 98.5%; % total impurities ([2]; HFA-152a, Initial time T = 0): <LoQ; % Assay (LC) [2, 11]: 98.6%; % total impurities [2, 11]: <LoQ; % Assay (LC) [2, 12]: 98.4%; % total impurities [2, 12]: 0.18%; % Assay (LC) [2, 13]: 97.6%; % total impurities [2, 13]: <LoQ; % Assay (LC) [2, 14]: 97.2%; % total impurities [2, 14]: 0.58% |
| 43.7 ± 0.2 | 12.6 ± 0.1 | 2.6 ± 2.4 | 38.7 ± 0.6 | 11.4 ± 0.4 | 2.8 ± 2.3 | 45.2 ± 0.7 | 21.0 ± 1.0 | 3.1 ± 2.2 | 44.2 ± 0.6 | 20.7 ± 0.8 | 3.0 ± 2.2 | 98.5 | 0.19% | 98.2 | 0.28 | 97.8 | 0.39 | 94.8 | 1.15 | C[N+]1(C)CCC(OC(=O)C(O)(c2ccccc2)C2CCCC2)C1 (stereo not shown) [Glycopyrronium Bromide, glycopyrronium bromide] | MMAD ([1]; HFA-134a based formulations): around 2.6 μm; % Assay (LC) [2, 10]: 93.8%; % total impurities [2, 10]: 1.38%; % Assay (LC) ([2]; HFA-152a, Initial time T = 0): 98.5%; % total impurities ([2]; HFA-152a, Initial time T = 0): 0.19%; % Assay (LC) [2, 11]: 98.6%; % total impurities [2, 11]: 0.25%; % Assay (LC) [2, 12]: 98.4%; % total impurities [2, 12]: 0.35%; % Assay (LC) [2, 13]: 97.6%; % total impurities [2, 13]: 0.55%; % Assay (LC) [2, 14]: 97.2%; % total impurities [2, 14]: 0.82% |
| – | – | – | – | – | – | – | – | – | – | – | – | – | – | – | – | – | – | – | – | CCc1cc2c(cc1CC)CC(NC[C@H](O)c1ccc(O)c3[nH]c(=O)ccc13)C2 [Indacaterol, indacaterol] | chemical stability under accelerated test conditions, HFA-152a rather than HFA-134a ([2]; HFA-152a as aerosolization propellant versus HFA-134a): superior chemical stability |
